Laboratory results reported in US8575157B2, “Cyclic inhibitors of 11beta-hydroxysteroid dehydrogenase 1” (Vitae Pharmaceuticals, Inc., priority 2010, dated 2013).
Where two headings read alike, the source gives them in different places. Values belong to the molecule of their own block, whether it stands above or below them.

Assays:
[1] = biological target: human CYP2C9 (Homo sapiens (Human), UniProt P11712); test: CYP2C9 inhibition (Invitrogen kit, OOMR fluorogenic substrate), Biological Test Example 9; format: in vitro ADME; conditions: read-out: Biological Test Example 9 CYP2C9 IC50
Sequence of human CYP2C9 (P11712 whole entry): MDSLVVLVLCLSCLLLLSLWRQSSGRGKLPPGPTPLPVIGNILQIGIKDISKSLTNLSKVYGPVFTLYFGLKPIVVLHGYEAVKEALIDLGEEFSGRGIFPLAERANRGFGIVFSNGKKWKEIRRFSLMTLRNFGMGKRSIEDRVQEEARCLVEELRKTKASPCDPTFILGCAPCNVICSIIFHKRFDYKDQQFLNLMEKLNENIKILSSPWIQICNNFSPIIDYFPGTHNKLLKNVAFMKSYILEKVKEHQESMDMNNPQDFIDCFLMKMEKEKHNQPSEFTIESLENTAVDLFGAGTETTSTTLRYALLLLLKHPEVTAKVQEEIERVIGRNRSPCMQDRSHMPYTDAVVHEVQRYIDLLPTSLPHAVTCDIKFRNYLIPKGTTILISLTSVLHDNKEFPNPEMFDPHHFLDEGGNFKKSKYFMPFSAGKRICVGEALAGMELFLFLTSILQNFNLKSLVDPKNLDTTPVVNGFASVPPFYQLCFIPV

[2] = biological target: human recombinant cytochrome P450 2C9 (Homo sapiens (Human), UniProt P11712); test: CYP2C9 inhibition ([O-methyl-14C]-Naproxen), Biological Test Example 7; format: in vitro ADME
Sequence of human recombinant cytochrome P450 2C9 (P11712 whole entry): as above

[3] = biological target: human recombinant cytochrome P450 2C19 (Homo sapiens (Human), UniProt P33261); test: CYP2C19 inhibition, Biological Test Example 8; format: in vitro ADME; conditions: read-out: Biological Test Example 8 CYP2C19, IC50
Sequence of human recombinant cytochrome P450 2C19 (P33261 whole entry): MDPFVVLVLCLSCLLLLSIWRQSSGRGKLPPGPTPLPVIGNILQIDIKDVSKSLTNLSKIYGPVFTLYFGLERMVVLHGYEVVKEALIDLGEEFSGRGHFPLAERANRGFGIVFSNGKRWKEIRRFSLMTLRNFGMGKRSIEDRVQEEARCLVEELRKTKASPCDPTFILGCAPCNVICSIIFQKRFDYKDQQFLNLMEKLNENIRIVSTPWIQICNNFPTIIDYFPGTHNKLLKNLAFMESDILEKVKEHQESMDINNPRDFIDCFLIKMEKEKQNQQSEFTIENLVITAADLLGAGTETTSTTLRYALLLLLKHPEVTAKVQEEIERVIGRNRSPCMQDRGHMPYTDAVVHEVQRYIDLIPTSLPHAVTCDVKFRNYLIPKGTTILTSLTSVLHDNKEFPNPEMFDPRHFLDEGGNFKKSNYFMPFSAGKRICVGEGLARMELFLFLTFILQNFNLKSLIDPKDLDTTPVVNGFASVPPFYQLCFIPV

[4] = biological target: human recombinant cytochrome P450 3A4 (Homo sapiens (Human), UniProt P08684); test: CYP3A4 inhibition, Biological Test Example 6; format: in vitro ADME
Sequence of human recombinant cytochrome P450 3A4 (P08684 whole entry): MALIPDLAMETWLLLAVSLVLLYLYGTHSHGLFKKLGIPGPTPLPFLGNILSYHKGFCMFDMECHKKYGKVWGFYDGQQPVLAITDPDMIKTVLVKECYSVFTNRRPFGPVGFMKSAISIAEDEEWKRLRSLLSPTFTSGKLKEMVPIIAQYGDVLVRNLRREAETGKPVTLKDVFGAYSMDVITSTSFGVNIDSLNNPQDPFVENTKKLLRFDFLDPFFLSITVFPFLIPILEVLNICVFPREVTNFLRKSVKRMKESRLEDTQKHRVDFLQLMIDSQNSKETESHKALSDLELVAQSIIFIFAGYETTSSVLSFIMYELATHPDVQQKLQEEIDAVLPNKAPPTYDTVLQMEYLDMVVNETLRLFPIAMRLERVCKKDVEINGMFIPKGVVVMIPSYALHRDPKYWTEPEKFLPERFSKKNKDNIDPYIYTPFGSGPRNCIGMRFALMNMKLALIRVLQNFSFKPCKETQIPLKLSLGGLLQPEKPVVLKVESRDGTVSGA

[5] = biological target: 11β-HSD1 (Homo sapiens (Human), UniProt P28845); format: biochemical; conditions: human liver microsomes, 100% indicates no inhibition, zero or below zero indicates complete inhibition
Sequence of 11β-HSD1 (P28845 whole entry): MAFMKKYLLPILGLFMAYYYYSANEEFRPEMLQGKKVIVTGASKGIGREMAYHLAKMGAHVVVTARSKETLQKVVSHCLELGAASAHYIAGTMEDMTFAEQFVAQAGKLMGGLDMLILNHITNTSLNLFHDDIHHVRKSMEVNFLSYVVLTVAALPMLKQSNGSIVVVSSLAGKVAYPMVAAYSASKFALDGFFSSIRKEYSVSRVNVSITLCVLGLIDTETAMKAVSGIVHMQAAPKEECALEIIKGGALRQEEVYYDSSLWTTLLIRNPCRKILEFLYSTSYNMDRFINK

[6] = Invitrogen kit, OOMR fluorogenic substrate
[7] = human recombinant CYP2C19, [N-methyl-14C]-Diazepam

- IC50 [1, 6]: 1.4 µM
Compound: C[C@@H](c1ccc(-c2cc[nH]c(=O)c2)cc1)N1CC[C@](CC(C)(C)O)(c2ccccc2)OC1=O [Example 2, (S)-6-(2-hydroxy-2-methylpropyl)-3-((S)-1-(4-(2-oxo-1,2-dihydropyridin-4-yl)phenyl)ethyl)-6-phenyl-1,3-oxazinan-2-one]

- IC50 [1, 6]: 5.1 µM
Compound: C[C@@H](c1ccc(-c2ccc(=O)n(C(F)F)c2)cc1)N1CC[C@](CC(C)(C)O)(c2ccccc2)OC1=O [Example 4, (S)-3-((S)-1-(4-(1-(difluoromethyl)-6-oxo-1,6-dihydropyridin-3-yl)phenyl)ethyl)-6-(2-hydroxy-2-methylpropyl)-6-phenyl-1,3-oxazinan-2-one]

- IC50 ([2]; human recombinant CYP2C9): 2.3 µM
- IC50 [3, 7]: 8.6 µM
- IC50 ([4]; human recombinant CYP3A4): 4.4 µM
- IC50 [1, 6]: 5 µM
Compound: C[C@@H](c1ccc(-c2ccc(=O)n(C)c2)cc1)N1CC[C@](CC(C)(C)C(N)=O)(c2ccccc2)OC1=O [Example 6, 2,2-dimethyl-3-((R)-3-((S)-1-(4-(1-methyl-6-oxo-1,6-dihydropyridin-3-yl)phenyl)ethyl)-2-oxo-6-phenyl-1,3-oxazinan-6-yl)propanamide]

- IC50 [1, 6]: 4 µM
Compound: C[C@@H](c1ccc(-c2ccc(=O)n(C)c2)cc1)N1CC[C@](CC(C)(C)N)(c2ccccc2)OC1=O [Example 7, (S)-6-(2-amino-2-methylpropyl)-3-((S)-1-(4-(1-methyl-6-oxo-1,6-dihydropyridin-3-yl)phenyl)ethyl)-6-phenyl-1,3-oxazinan-2-one]

- IC50 [1, 6]: 3 µM
Compound: CC(=O)NC(C)(C)C[C@]1(c2ccccc2)CCN([C@@H](C)c2ccc(-c3ccc(=O)n(C)c3)cc2)C(=O)O1 [Example 8, N-(2-methyl-1-((S)-3-((S)-1-(4-(1-methyl-6-oxo-1,6-dihydropyridin-3-yl)phenyl)ethyl)-2-oxo-6-phenyl-1,3-oxazinan-6-yl)propan-2-yl)acetamide]

- IC50 ([2]; human recombinant CYP2C9): 5.6 µM
- IC50 [3, 7]: < 0.4 µM
- IC50 ([4]; human recombinant CYP3A4): 4.4 µM
- IC50 [1, 6]: 7.3 µM
Compound: C[C@@H](c1ccc(-c2ccn(C)c(=O)c2)cc1)N1CC[C@](CC(C)(C)NS(C)(=O)=O)(c2ccccc2)OC1=O [Example 13, N-(2-methyl-1-((S)-3-((S)-1-(4-(1-methyl-2-oxo-1,2-dihydropyridin-4-yl)phenyl)ethyl)-2-oxo-6-phenyl-1,3-oxazinan-6-yl)propan-2-yl)methanesulfonamide]

- IC50 ([2]; human recombinant CYP2C9): 25.9 µM
- IC50 [3, 7]: 6.4 µM
- IC50 ([4]; human recombinant CYP3A4): 19.7 µM
- IC50 [1, 6]: 24.6 µM
Compound: C[C@@H](c1ccc(-c2cc[nH]c(=O)c2)cc1)N1CC[C@](CC(C)(C)C#N)(c2ccccc2)OC1=O [Example 14, 2,2-dimethyl-3-((R)-2-oxo-3-((S)-1-(4-(2-oxo-1,2-dihydropyridin-4-yl)phenyl)ethyl)-6-phenyl-1,3-oxazinan-6-yl)propanenitrile]

- IC50 ([2]; human recombinant CYP2C9): 7.7 µM
- IC50 [3, 7]: < 0.4 µM
- IC50 ([4]; human recombinant CYP3A4): 3.1 µM
- IC50 [1, 6]: 9.5 µM
Compound: C[C@@H](c1ccc(-c2ccc(=O)[nH]c2)cc1)N1CC[C@](CC(C)(C)C#N)(c2ccc(F)cc2)OC1=O [Example 15, 3-((R)-6-(4-fluorophenyl)-2-oxo-3-((S)-1-(4-(6-oxo-1,6-dihydropyridin-3-yl)phenyl)ethyl)-1,3-oxazinan-6-yl)-2,2-dimethylpropanenitrile]

Compound: C[C@@H](c1ccc(-c2ccn(C)c(=O)c2)cc1)N1CC[C@](CC(C)(C)O)(c2ccccc2F)OC1=O [Example 26, (S)-6-(2-fluorophenyl)-6-(2-hydroxy-2-methylpropyl)-3-((S)-1-(4-(1-methyl-2-oxo-1,2-dihydropyridin-4-yl)phenyl)ethyl)-1,3-oxazinan-2-one]
- IC50 [2]: > 50 µM
- IC50 [3]: > 50 µM
- IC50 [4]: > 50 µM

- IC50 [4]: > 50 µM
Compound: C[C@@H](c1ccc(-c2ccc(=O)n(C)c2)cc1)N1CC[C@](CCCO)(c2ccccc2)OC1=O [Example 30, (R)-6-(3-hydroxypropyl)-3-((S)-1-(4-(1-methyl-6-oxo-1,6-dihydropyridin-3-yl)phenyl)ethyl)-6-phenyl-1,3-oxazinan-2-one]

- IC50 [2]: > 50 µM
- IC50 [3]: > 50 µM
- IC50 [4]: > 50 µM
Compound: C[C@@H](c1ccc(-c2ccc(=O)n(C)c2)cc1)N1CC[C@](CC(C)(C)O)(c2ccc(F)cc2)OC1=O [Example 32, (S)-6-(4-fluorophenyl)-6-(2-hydroxy-2-methylpropyl)-3-((S)-1-(4-(1-methyl-6-oxo-1,6-dihydropyridin-3-yl)phenyl)ethyl)-1,3-oxazinan-2-one]

Compound: CC[C@@H](c1ccc(-c2ccc(=O)n(C)c2)cc1)N1CC[C@](CCO)(c2ccccc2)OC1=O [Example 40, (S)-6-(2-hydroxyethyl)-3-((S)-1-(4-(1-methyl-6-oxo-1,6-dihydropyridin-3-yl)phenyl)propyl)-6-phenyl-1,3-oxazinan-2-one]
- IC50 [2]: > 50 µM
- IC50 [4]: > 50 µM

- IC50 [2]: > 50 µM
- IC50 [3]: > 50 µM
- IC50 [4]: > 50 µM
- IC50 [1]: 30 µM
Compound: CCn1cc(-c2ccc([C@H](C)N3CC[C@](CC(C)(C)O)(c4ccccc4)OC3=O)cc2)ccc1=O [Example 53, (S)-3-((S)-1-(4-(1-ethyl-6-oxo-1,6-dihydropyridin-3-yl)phenyl)ethyl)-6-(2-hydroxy-2-methylpropyl)-6-phenyl-1,3-oxazinan-2-one]

Compound: CC(C)n1cc(-c2ccc([C@H](C)N3CC[C@](CC(C)(C)O)(c4ccccc4)OC3=O)cc2)ccc1=O [Example 59, (S)-6-(2-hydroxy-2-methylpropyl)-3-((S)-1-(4-(1-isopropyl-6-oxo-1,6-dihydropyridin-3-yl)phenyl)ethyl)-6-phenyl-1,3-oxazinan-2-one]
- IC50 [4]: > 50 µM

Compound: Cc1cc(-c2ccc([C@H](C)N3CC[C@](CC(C)(C)O)(c4ccccc4)OC3=O)cc2)cn(C)c1=O [Example 61, (S)-3-((S)-1-(4-(1,5-dimethyl-6-oxo-1,6-dihydropyridin-3-yl)phenyl)ethyl)-6-(2-hydroxy-2-methylpropyl)-6-phenyl-1,3-oxazinan-2-one]
- IC50 [4]: > 50 µM

- IC50 [2]: > 50 µM
Compound: CCn1cc(-c2ccc([C@H](C)N3CC[C@](CC(C)(C)O)(c4ccc(F)cc4)OC3=O)cc2)ccc1=O [Example 62, (S)-3-((S)-1-(4-(1-ethyl-6-oxo-1,6-dihydropyridin-3-yl)phenyl)ethyl)-6-(4-fluorophenyl)-6-(2-hydroxy-2-methylpropyl)-1,3-oxazinan-2-one]

Compound: Cc1cc(-c2ccc([C@H](C)N3CC[C@](CC(C)(C)O)(c4ccccc4)OC3=O)cc2)cc(=O)n1C [Example 64, (S)-3-((S)-1-(4-(1,6-dimethyl-2-oxo-1,2-dihydropyridin-4-yl)phenyl)ethyl)-6-(2-hydroxy-2-methylpropyl)-6-phenyl-1,3-oxazinan-2-one]
- IC50 [4]: > 50 µM

Compound: C[C@@H](c1ccc(-c2ccc(=O)n(C)c2)cc1)N1CC[C@](CC(C)(C)C#N)(c2ccc(F)cc2)OC1=O [Example 69, 3-((R)-6-(4-fluorophenyl)-3-((S)-1-(4-(1-methyl-6-oxo-1,6-dihydropyridin-3-yl)phenyl)ethyl)-2-oxo-1,3-oxazinan-6-yl)-2,2-dimethylpropanenitrile]
- IC50 [3]: > 50 µM

- IC50 [2]: > 50 µM
Compound: CCn1cc(-c2ccc([C@H](C)N3CC[C@](CC(C)(C)O)(c4ccccc4)OC3=O)cc2)cc(C)c1=O [Example 70, (S)-3-((S)-1-(4-(1-ethyl-5-methyl-6-oxo-1,6-dihydropyridin-3-yl)phenyl)ethyl)-6-(2-hydroxy-2-methylpropyl)-6-phenyl-1,3-oxazinan-2-one]

Compound: C[C@@H](c1ccc(-c2ccc(=O)n(CC3CC3)c2)cc1)N1CC[C@](CC(C)(C)O)(c2ccccc2)OC1=O [Example 76, 3-{(S)-1-[4-(1-Cyclopropylmethyl-6-oxo-1,6-dihydro-pyridin-3-yl)-phenyl]-ethyl}-(S)-6-(2-hydroxy-2-methyl-propyl)-6-phenyl-[1,3]oxazinan-2-one]
- Average % control inhibition at 100 nM [5]: 17 % control

Compound: COC[C@]1(c2ccccc2)CCN([C@@H](C)c2ccc(-c3ccn(C)c(=O)c3)cc2)C(=O)O1 [Example 78, (R)-6-Methoxymethyl-3-{(S)-1-[4-(1-methyl-2-oxo-1,2-dihydro-pyridin-4-yl)-phenyl]-ethyl}-6-phenyl-[1,3]oxazinan-2-one]
- Average % control inhibition at 100 nM [5]: 58 % control

- IC50 [3]: > 50 µM
- IC50 [4]: > 50 µM
Compound: C[C@@H](c1ccc(-c2ccn(C3CC3)c(=O)c2)cc1)N1CC[C@](CC(C)(C)O)(c2ccccc2F)OC1=O [Example 88, (S)-3-((S)-1-(4-(1-cyclopropyl-2-oxo-1,2-dihydropyridin-4-yl)phenyl)ethyl)-6-(2-fluorophenyl)-6-(2-hydroxy-2-methylpropyl)-1,3-oxazinan-2-one]
